* marks the point of attachment. Palmitoyl = CCCCCCCCCCCCCCCC(=O)*
B1: VEGF-PA (CH3(CH2)14C(O)-VVAAKKKGKLTWQELYQLKYKGI-NH2) (peptide)
peptide: Palmitoyl-VVAAKKKGKLTWQELYQLKYKGI-NH2
SMILES: CCCCCCCCCCCCCCCC(=O)N[C@H](C(=O)N[C@H](C(=O)N[C@@H](C)C(=O)N[C@@H](C)C(=O)N[C@@H](CCCCN)C(=O)N[C@@H](CCCCN)C(=O)N[C@@H](CCCCN)C(=O)NCC(=O)N[C@@H](CCCCN)C(=O)N[C@@H](CC(C)C)C(=O)N[C@H](C(=O)N[C@@H](Cc1c[nH]c2ccccc12)C(=O)N[C@@H](CCC(N)=O)C(=O)N[C@@H](CCC(=O)O)C(=O)N[C@@H](CC(C)C)C(=O)N[C@@H](Cc1ccc(O)cc1)C(=O)N[C@@H](CCC(N)=O)C(=O)N[C@@H](CC(C)C)C(=O)N[C@@H](CCCCN)C(=O)N[C@@H](Cc1ccc(O)cc1)C(=O)N[C@@H](CCCCN)C(=O)NCC(=O)N[C@H](C(N)=O)[C@@H](C)CC)[C@@H](C)O)C(C)C)C(C)C
B2: mutant PA (CH3(CH2)14C(O)-VVAAKKKGKLTAQELVFLKVKGI-NH2) (peptide)
peptide: Palmitoyl-VVAAKKKGKLTAQELVFLKVKGI-NH2
SMILES: CCCCCCCCCCCCCCCC(=O)N[C@H](C(=O)N[C@H](C(=O)N[C@@H](C)C(=O)N[C@@H](C)C(=O)N[C@@H](CCCCN)C(=O)N[C@@H](CCCCN)C(=O)N[C@@H](CCCCN)C(=O)NCC(=O)N[C@@H](CCCCN)C(=O)N[C@@H](CC(C)C)C(=O)N[C@H](C(=O)N[C@@H](C)C(=O)N[C@@H](CCC(N)=O)C(=O)N[C@@H](CCC(=O)O)C(=O)N[C@@H](CC(C)C)C(=O)N[C@H](C(=O)N[C@@H](Cc1ccccc1)C(=O)N[C@@H](CC(C)C)C(=O)N[C@@H](CCCCN)C(=O)N[C@H](C(=O)N[C@@H](CCCCN)C(=O)NCC(=O)N[C@H](C(N)=O)[C@@H](C)CC)C(C)C)C(C)C)[C@@H](C)O)C(C)C)C(C)C

Assays:
ischemic hind-limb = experiment: Murine hind-limb ischemia (HLI) model; format: in vivo, mice; details: for limb motor function score / tissue (limb) salvage score: single i.m. injection 25 μl of 2 mM; for limb motor function score: grade 1-5; for tissue (limb) salvage score: grade 1-6; for Rota Rod walking time prior to failure: saline 90.4 seconds; for number of CD31+ capillaries in ischemic limb muscle: tissue harvested at day 28, saline 893/mm2
Experimental: For the HLI procedure, eight week old male FVB wild-type mice (Charles River) were anesthetized by intraperitoneal injection of avertin (125 mg/kg). By means of a dissecting microscope, the femoral nerve was carefully separated from the vessel bundle. The right femoral artery was ligated and excised, including all superficial and deep branches. Critical limb ischemia was immediately verified by laser Doppler imaging (LDPI, MoorLDI-SIM, Moor Instruments, Ltd) to ensure the ratio (ischemic/non-ischemic limb) was ≦0.20. At postoperative day 3, outliers with low ischemia were triaged based on LDPI (ratio ischemic/nonischemic 0.30) as were outliers with extreme ischemia (necrotic demarcation of entire limb), determined by macroscopic evaluation. […] For follow-up, animals underwent reevaluations with LDPI at postoperative day 7, 14, and 28 before animals were sacrificed (CO, asphyxia) for tissue harvest at day 28. At each time-point, tissue perfusion was measured via LDPI, measuring blood flow in both the ischemic and non-ischemic limb and reporting results as the ratio of these two measurements. All LDPI measurements were taken on a 37° C. heating pad to control body temperature. In addition, motor function and tissue damage was semi-quantitatively assessed on post-operative day 7, 14, 21 and 28 by established scoring systems. Tissue damage in the ischemic limb (limb salvage score) was graded as full recovery (grade 6), minor necrosis or nail loss (grade 5), partial toe amputation (grade 4), total toe amputation (grade 3), partial/total foot amputation (grade 2) or partial/total limb amputation (grade 1) (modified from). Limb motor function was graded as unrestricted (grade 5), no active use of toe(s) or spreading (grade 4), restricted foot use (grade 3), no use of foot (grade 2) or no use of limb at all (grade 1) (modified from). Finally, walking capacity was measured via a Rota Rod apparatus. […] The mean of two assessments was used as for failure time for each animal. At day 28, muscle tissue from the ischemic limb was harvested, fixed in methanol, paraffin-embedded, and cross-sectioned (6-μm) for histological immunostaining. Briefly, sections were blocked with 10% donkey serum (30 min, RT). Primary antibodies were diluted in PBS containing BSA, and applied to tissue slices for 2 hrs at 37° C. Sections were stained for CD31, an endothelial-specific marker, using rat anti-CD31 antibodies (BD Pharmingen Inc) and smooth-muscle α-actin (αSMA), a vascular smooth muscle marker, using rabbit-anti-αSMA (Sigma-Aldrich Co.). For immunofluorescent detection, primary antibodies were resolved with Alexa-Fluor-conjugated secondary antibodies (Invitrogen Corporation, Carlsbad, Calif., USA dilution) and nuclei were counterstained with DAPI (Research Organics). Slides were imaged using fluorescent microscopy (Zeiss), and CD31+capillary forms and CD31+/sMA+]mature microvessels/arterioles were quantified in 3 separate high-power fields (20×) from 3 independent sections in each animal (9 images/animal). All error bars indicate the standard error of the mean. Differences between groups were determined using a one-way analysis of variance (ANOVA) with a Bonferroni multiple comparisons post-hoc test using GraphPad InStat v3.0b. […] VEGF-PA or control treatments were administered by an intramuscular injection three days following the induction of critical ischemia by ligation and excision of the right femoral artery and all superficial and deep branches, as described above. Animals were assessed serially throughout the study for motor function and limb salvage and Laser Doppler perfusion imaging (LDPI) was used to assess tissue perfusion. At the end of the study, exercise endurance was recorded on a Rota Rod treadmill and tissue was harvested for immunohistological staining of capillaries to observe effects on the microcirculation.

[1] = target: T1, VEGF receptor 2 (VEGFR2 or KDR) (Homo sapiens, UniProt P35968); experiment: Sandwich ELISA of phosphorylated VEGFR2 in lysates of stimulated HUVEC; format: cell-based; details: HUVEC, 1 μM, 2 minutes exposure; untreated control 1.000±0.109
T1 construct: host or cells: HUVEC
Experimental: Human umbilical vein endothelial cells (HUVECs) and complete endothelial cell growth media (EGM) were purchased (Genlantis, San Diego, Calif.), passaged two times following receipt, and cryo-preserved in media with 5% DMSO. Cells were thawed as needed and grown to confluence in a […] flasks (VWR Falcon) prior to plating for experiments.
Phosphorylation of both VEGFRI and VEGFR2 was assayed using commercially available assay kit (R&D Systems, Minneapolis, Minn.) following the recommended protocol. First, confluent HUVECs plated in 24 well plates were starved for 5 hours in serum-free defined media (SFDM, Genlantis) specifically designed to maintain cells in a growth factor-free setting for growth factor signaling and metabolic assays. Following starvation, the various treatments were dissolved in SFDM to a concentration of 1 μM. […] Cells were exposed to treatment for 2 minutes. To evaluate the time-course of phosphorylation the same protocol was followed and cells were exposed to VEGF-PA for 0, 1, 3, 5, 10, 15, 20, 25, 30, 40, 50, and 60 minutes.

HUVECs [2] = experiment: HUVEC proliferation (CyQUANT-NF cell number); format: cell-based, human; details: 1 μM in EGM, 48 hours; untreated control 100.0%
Experimental: In vitro studies were performed using HUVECs, a primary endothelial cell that is VEGF-responsive and frequently used as a model endothelial cell for angiogenesis studies in vitro [31].
To evaluate proliferation, HUVECs were plated at 5000 per well in a 96 well plate. […] Additionally, unsupplemented growth media was used as a control. After 48 hours, cell number was quantified using CyQUANT-NF (Invitrogen) and a standard fluorescent microplate reader. Cell number is expressed relative to the group treated with unsupplemented growth media.

HUVECs [3] = experiment: HUVEC migration scratch assay; format: cell-based, human; details: 1 μM in EBM with 0.5% FBS, 18 hours; untreated 25.2%
Experimental: To evaluate cell migration, endothelial basal media (EBM) without growth factors (Lonza) was supplemented with 0.5% FBS in order to prevent apoptosis but not promote significant migration or proliferation. Cells were grown to confluence in a 12 well plate and a 1 ml pipette tip was used to create a denuded scratch and the surface was washed twice with PBS to remove detached cells. The average scratch width at the initial time-point was […] Markings were placed on the underside of the plate to ensure the same region of the scratch was recorded in each image. […] The total pixel area of the scratch at the initial time-point was recorded using ImageJ analysis software, and the percent migration was determined from the reduction in denuded area at 18 hours.

[4] = test system: chicken chorioallantoic membrane (CAM); experiment: Shell-less chicken chorioallantoic membrane (CAM) angiogenesis assay; format: in vivo; details: 2 mM in PBS dried on coverslip, three days following treatment; saline 132%
Description: An established assay reflecting in vivo angiogenesis, the chicken chorioallantoic membrane (CAM) assay, was used to evaluate the angiogenic potential of the VEGF-PA of the present examples. This assay utilizes the extra-embryonic allantois, a tissue derived from the mesoderm that develops into a densely vascularized membrane. A common deviation from the traditional assay is to remove the shell and conduct the assay on a shell-less embryo, termed the shell-less CAM assay, as we have performed here. Fertilized white leghorn chicken eggs (Phil's Fresh Eggs, Forreston, Ill.) were received and cultured in a temperature controlled, humidified egg incubator. On embryonic day 3, eggs were cracked within a sterile tissue culture hood into round 100 mm petri dishes. Fertilized embryos were then transferred to a water-jacketed CO2 incubator, set to 37.5° C., 1% CO2 and 100% relative humidity. On embryonic day 10, the material treatment was dissolved at 2 mM in PBS, evaporated onto the surface of a 5 mm round glass cover slip, and placed facing down on top of the CAM (n=16/group). Digital images were captured through the eyepiece of a Nikon stereomicroscope and vessel density was quantified by the number of intersections of vessel structures with the edge of the cover slip and expressed relative to the initial time-point. Images were captured daily, beginning at embryonic day 10 and culminating on embryonic day 13, the standard range over which the CAM assay is performed. Additionally, images were assessed qualitatively for morphological differences in the CAM vasculature including spoking, branching and leakage.

HUVECs [5] = experiment: HUVEC survival after serum-starvation (Annexin V-PE apoptosis); format: cell-based, human; details: 1 μM in EBM, serum-starvation 24 hours; untreated 31.7%
Experimental: To evaluate cell survival, endothelial basal media (EBM) without growth factors (Lonza) was used to induce a serum-starvation. Cells were plated in 12 well plates and grown to confluence with standard growth media. […] Cells were grown in these conditions for 24 hours. Survival was quantified using Annexin V: PE staining with 7-AAD vital staining (BD Biosciences) following provided assay instructions and analyzed on a DakoCytomation CyAn. Survival was assessed by determining the fraction of cells that were apoptotic (Annexin V-PE positive).

VEGF receptor 1 = VEGF receptor 1 (human, UniProt P17948 27-1338); experiment: cell-based or functional assay
[6] = 14 days after induction of ischemia

Chain of VEGF receptor 1 (P17948 27-1338): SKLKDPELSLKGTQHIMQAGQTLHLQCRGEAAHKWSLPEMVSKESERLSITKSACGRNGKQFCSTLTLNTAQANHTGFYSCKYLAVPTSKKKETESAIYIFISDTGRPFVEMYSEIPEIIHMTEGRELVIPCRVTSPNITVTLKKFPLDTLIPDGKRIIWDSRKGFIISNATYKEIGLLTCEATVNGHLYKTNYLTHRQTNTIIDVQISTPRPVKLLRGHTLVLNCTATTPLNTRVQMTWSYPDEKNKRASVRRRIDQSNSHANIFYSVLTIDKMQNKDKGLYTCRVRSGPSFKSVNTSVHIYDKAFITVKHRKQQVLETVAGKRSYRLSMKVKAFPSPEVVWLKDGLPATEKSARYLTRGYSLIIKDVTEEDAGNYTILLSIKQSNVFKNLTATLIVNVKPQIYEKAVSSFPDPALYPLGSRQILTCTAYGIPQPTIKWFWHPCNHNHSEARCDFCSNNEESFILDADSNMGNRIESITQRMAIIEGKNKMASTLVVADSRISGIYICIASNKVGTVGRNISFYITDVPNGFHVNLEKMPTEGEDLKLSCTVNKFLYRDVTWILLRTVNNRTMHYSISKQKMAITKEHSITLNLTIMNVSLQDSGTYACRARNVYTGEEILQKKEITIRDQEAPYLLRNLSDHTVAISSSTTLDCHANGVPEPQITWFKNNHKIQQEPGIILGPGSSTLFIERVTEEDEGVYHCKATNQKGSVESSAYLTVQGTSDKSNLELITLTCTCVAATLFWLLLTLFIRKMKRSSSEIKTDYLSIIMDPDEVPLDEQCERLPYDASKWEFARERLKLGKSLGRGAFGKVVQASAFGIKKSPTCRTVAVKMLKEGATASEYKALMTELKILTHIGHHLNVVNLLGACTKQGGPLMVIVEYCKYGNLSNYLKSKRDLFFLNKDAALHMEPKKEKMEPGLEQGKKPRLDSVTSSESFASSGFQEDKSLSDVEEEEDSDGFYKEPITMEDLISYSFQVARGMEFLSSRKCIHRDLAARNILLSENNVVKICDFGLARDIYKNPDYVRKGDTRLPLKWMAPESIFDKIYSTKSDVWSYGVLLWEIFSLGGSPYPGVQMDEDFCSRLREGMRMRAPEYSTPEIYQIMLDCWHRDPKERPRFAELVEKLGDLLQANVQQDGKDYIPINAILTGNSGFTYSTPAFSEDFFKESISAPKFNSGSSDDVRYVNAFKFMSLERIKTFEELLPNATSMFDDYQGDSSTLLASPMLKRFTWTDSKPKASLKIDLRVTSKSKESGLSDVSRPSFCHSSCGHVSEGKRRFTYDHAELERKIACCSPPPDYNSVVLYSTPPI
T1 sequence (P35968 20-1356): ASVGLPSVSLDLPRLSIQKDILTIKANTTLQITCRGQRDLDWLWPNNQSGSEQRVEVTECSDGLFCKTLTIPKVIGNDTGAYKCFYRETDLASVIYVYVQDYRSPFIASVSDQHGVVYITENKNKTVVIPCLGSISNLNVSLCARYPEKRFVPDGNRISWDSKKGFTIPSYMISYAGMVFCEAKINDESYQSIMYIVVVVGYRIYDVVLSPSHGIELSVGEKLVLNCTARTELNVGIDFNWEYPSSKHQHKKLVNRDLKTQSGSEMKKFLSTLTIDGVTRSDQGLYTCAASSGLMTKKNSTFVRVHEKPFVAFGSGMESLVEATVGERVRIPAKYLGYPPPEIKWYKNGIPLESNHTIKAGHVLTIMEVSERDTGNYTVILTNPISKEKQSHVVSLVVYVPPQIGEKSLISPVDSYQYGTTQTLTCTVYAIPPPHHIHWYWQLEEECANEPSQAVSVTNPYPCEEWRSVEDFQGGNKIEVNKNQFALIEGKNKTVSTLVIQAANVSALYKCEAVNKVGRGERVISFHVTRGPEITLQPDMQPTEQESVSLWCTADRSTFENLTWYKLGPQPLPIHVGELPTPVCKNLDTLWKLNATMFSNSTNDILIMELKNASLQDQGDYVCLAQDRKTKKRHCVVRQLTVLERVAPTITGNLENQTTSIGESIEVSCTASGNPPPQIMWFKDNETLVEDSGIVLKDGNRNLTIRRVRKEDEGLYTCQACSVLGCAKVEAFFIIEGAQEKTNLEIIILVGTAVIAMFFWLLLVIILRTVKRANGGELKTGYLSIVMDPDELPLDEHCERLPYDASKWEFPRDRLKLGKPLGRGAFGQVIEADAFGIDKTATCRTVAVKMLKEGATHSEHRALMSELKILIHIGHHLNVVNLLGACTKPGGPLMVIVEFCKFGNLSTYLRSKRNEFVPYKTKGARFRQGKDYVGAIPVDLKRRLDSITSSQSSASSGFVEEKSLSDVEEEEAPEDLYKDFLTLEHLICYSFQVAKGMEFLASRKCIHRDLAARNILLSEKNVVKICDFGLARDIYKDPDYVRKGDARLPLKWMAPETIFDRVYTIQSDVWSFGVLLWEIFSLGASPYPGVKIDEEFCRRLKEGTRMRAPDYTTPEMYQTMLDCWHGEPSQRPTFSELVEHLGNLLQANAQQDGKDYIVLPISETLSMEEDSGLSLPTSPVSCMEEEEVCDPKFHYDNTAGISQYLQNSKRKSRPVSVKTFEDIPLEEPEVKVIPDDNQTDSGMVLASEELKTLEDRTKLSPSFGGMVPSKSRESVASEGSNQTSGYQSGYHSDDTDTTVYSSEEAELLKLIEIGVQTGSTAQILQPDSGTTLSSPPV

Row | Molecule | LDPI perfusion ratio (ischemic/non-ischemic limb) (ischemic hind-limb; [6]) | limb motor function score (ischemic hind-limb; day 21) | tissue (limb) salvage score (ischemic hind-limb; day 21) | LDPI perfusion ratio (ischemic/non-ischemic limb) (ischemic hind-limb; day 28) | Rota Rod walking time prior to failure (ischemic hind-limb; day 28) [s] | limb motor function score (ischemic hind-limb; day 28) | tissue (limb) salvage score (ischemic hind-limb; day 28) | number of CD31+ capillaries in ischemic limb muscle (ischemic hind-limb) | VEGFR2 phosphorylation level relative to untreated control [1] | proliferation (cell number relative to unsupplemented growth media) (HUVECs [2]) | reduction in scratch wound size (denuded area) (HUVECs [3]) | blood vessels relative to the initial value [4] | fraction of apoptotic cells (Annexin V-PE positive) (HUVECs [5]) | amount of phosphorylated VEGFR1 relative to untreated control (sandwich ELISA on HUVEC lysates, 1 uM, 2 min) (VEGF receptor 1) | further results
1 | Ac-KLTWQELYQLKYKGI-NH2 [VEGF peptide] | 0.54±0.06 | 3.41±0.21 | 3.45±0.25 | 0.52±0.06 | 115.6 ± 10.9 | 3.50±0.17 | 3.45±0.25 | 949±48 /mm2 | 1.343±0.050 | 98.4%±0.7% | 52.5%±4.1% | 139%±11% | 23.4%±1.1% |  | 
2 | CH3(CH2)14C(O)—VVAAKKKGKLTAQELVFLKVKGI-NH2 (Palmitoyl-VVAAKKKGKLTAQELVFLKVKGI-NH2; SMILES CCCCCCCCCCCCCCCC(=O)N[C@H](C(=O)N[C@H](C(=O)N[C@@H](C)C(=O)N[C@@H](C)C(=O)N[C@@H](CCCCN)C(=O)N[C@@H](CCCCN)C(=O)N[C@@H](CCCCN)C(=O)NCC(=O)N[C@@H](CCCCN)C(=O)N[C@@H](CC(C)C)C(=O)N[C@H](C(=O)N[C@@H](C)C(=O)N[C@@H](CCC(N)=O)C(=O)N[C@@H](CCC(=O)O)C(=O)N[C@@H](CC(C)C)C(=O)N[C@H](C(=O)N[C@@H](Cc1ccccc1)C(=O)N[C@@H](CC(C)C)C(=O)N[C@@H](CCCCN)C(=O)N[C@H](C(=O)N[C@@H](CCCCN)C(=O)NCC(=O)N[C@H](C(N)=O)[C@@H](C)CC)C(C)C)C(C)C)[C@@H](C)O)C(C)C)C(C)C) [mutant PA] | 0.42±0.05 | 2.86±0.14 | 3.14±0.26 | 0.48±0.05 | 106.7 ± 17.6 | 3.29±0.18 | 3.43±0.37 | 954±81 /mm2 | 1.001±0.103 | 101.8%±1.4% | 30.0%±7.3% | 149%±8% | 24.2%±1.1% |  | 
3 | Native VEGF (from UniProt P15692 27-191) (ligand) |  |  |  |  |  |  |  |  |  |  |  |  |  |  | amount of phosphorylated VEGFR1 relative to untreated control (sandwich ELISA on HUVEC lysates, 100 ng/ml, 2 min) (fold of untreated control) (VEGF receptor 1): 1.31
4 | B1 |  |  |  |  |  |  |  |  |  |  |  |  |  | 1.63 fold of untreated control | 
5 | B2 |  |  |  |  |  |  |  |  |  |  |  |  |  | 0.931 fold of untreated control | 
6 | Ac-KLTWQELYQLKYKGI-NH2 [VEGF peptide (Ac-KLTWQELYQLKYKGI-NH2)] |  |  |  |  |  |  |  |  |  |  |  |  |  | 1.33 fold of untreated control | 

— patent publication US20130101628A1 (NORTHWESTERN UNIVERSITY, priority 2011, published 2013)
